What was measured:
[1] = Microsome metabolism assay; format: in vitro ADME, human; details: for half-life at 5 µM: human microsomes (20 mg/ml protein), NADPH, 120 min
Description: (a) CTR-21 is much more metabolically stable than CTR-32. 5 µM of CTR-21 or CTR-32 were incubated with human microsomes (20 mg/ml protein) in the presence of NADPH over the course of 120 min. The lysates were analyzed and % remaining CTR compounds were identified and estimated using HPLC–MS. (b) Summary of structure–activity relationship (SAR) based on activity and metabolic stability.
Microsome metabolism assay was carried out as per manufacturer protocol (ThermoFisher), with 5 µM of starting compound. Analytes were measured on a Waters Xevo G2-XS Quadrupole Time-of-Flight mass spectrometer. Half-life was calculated using exponential one phase decay (GraphPad Prism 5). Hydroxychloroquine was used as an internal standard (500 pg/µL).

HeLa cells [2] = assay: Cell cycle analysis by flow cytometry; format: cell-based, human
Description: Figure 5 CTR-21 arrests cells at G2/M, eventually leading to cell death by apoptosis. (a) Effects of CTR-21 on the cell cycle progression of HeLa and E112 cells. […] (b) Cell morphology of CTR-21 arrested cells. HeLa cells were treated with 30 nM of CTR-21 for 12 h, fixed with methanol and immunostained with α-tubulin or γ-tubulin, and counterstained with DAPI. Bar = […]. (c) CTR-21 promotes PARP cleavage. […] GAPDH was used as a loading control.
Cell cycle progression was determined using flow cytometry. UKRV-Mel-38 and HeLa cells were plated onto 10 cm plate at a density of 0.5 million and treated them with or without the compounds the following day for 12, 24 or 48 h. Cells were then harvested and centrifuged at 1000 rpm for 5 min, washed in PBS and then fixed with ice-cold ethanol (70%) for at least 24 h at − 20 °C. The cells were centrifuged, re-suspended in PBS solution, followed by centrifugation. The cell pellet was then stained with 100 μg/mL propidium iodide (PI) and 100 μg/mL RNase A in distilled water for at least 1 h. DNA content was measured using a Beckmann Coulter Cytomics FC500 (Beckman Coulter, Fullerton, CA), and the proportion of cell populations in G0/G1, S, and G2/M phases of cell cycle was calculated on the basis of DNA distribution histograms using CXP software (Beckman Coulter, Fullerton, CA).

[3] = tested on: NCI-60 panel of cancer cell lines; assay: NCI-60 panel, SRB colorimetric assay; format: cell-based; details: 10 μM single dose and five dose data (Supplemental Figs. S1–S8)
Description: Supplementa ry Figure l egend
Supplementary Figures S 1- S4.CTR -21 effectivel y prev ent proliferation o f a rep resent ative set […]
of cancer cell lines (NC I-60 panel). Fi gu re S 1: 10 μM of CTR -21 was used against the panel of […]
NC I-60 cancer cell lines including: six leukemia cell lines, nine non-small cell lung cancer cell […]
lines, seven colorectal cancer cell lines, six CNS cancer cell lines, nine mel anoma cell lines, seven ovari an can cer cell lines, seven ren al can cer cell lines, two prostate cancer cell lines and six breast cancer cell lines, utilizing the sulforhodamine B (SRB) colorimetric assa y. Fi gu re S 2- […]
S4: Five dose data for CTR-21.
Supplementary Figures S 5- S8.CTR -32effectivel y prev ent s prolifer ation of a rep resent ative set […]
of cancer cell lines (NC I-60 panel). Fi gu re S 5: 10 μM of CTR -32 was used against the panel of […]
six breast cancer cell lines, utilizing the sulforhodamine B (SRB) colorimetric assa y. Fi gu re S 6- […]
S8: Five dose data for CTR-32.
Supplementa ry Figure S9.CTR -21 and CTR-32 inhibit microtubule pol ymerization in vitro .
Spontaneous pol ymerizat ion of 20µM porcine tubulin was initiated with the addition of 1 […]
mmol/L GTP at 37°C and monitored ever y minut e for 60 minutes in the presence of the […]
indicated concentration of CTR-21, CTR-32, nocodazole, paclitaxel, or a DMSO vehicle […]

MDA-MB-231TaxR cells = assay: Combination of CTR-21 with paclitaxel, combinatorial index; format: cell-based, human; details: paclitaxel 18.75 nM + CTR-21 23 nM
Description: (§1) (a) CTR-21 kills HeLa in a synergistic manner with ABT-737. Cells were treated with 0.78 nM CTR-21 and indicated concentrations of ABT-737. CI denotes combinatorial index, calculated according to described previously. (b) CTR-21 effectively kills paclitaxel-resistant cells when combined with paclitaxel. The paclitaxel-resistant MDA-MB-231TaxR cells were treated with 23 nM of CTR-21 and indicated concentrations of paclitaxel. TEXT PRINTED IN THE PICTURE: (a) Combo: HeLa: CI: 0.93 (ABT-737 (12.5 μM); CTR-21 (0.78 nM)); HeLa: CI: 0.94 (ABT-737 (6.25 μM); CTR-21 (0.78 nM)); HeLa: CI: 0.81 (ABT-737 (3.125 μM); CTR-21 (0.78 nM)); HeLa: CI: 0.48 (ABT-737 (1.5625 μM); CTR-21 (0.78 nM)) | (b) Combo: MDA-MB-231-TaxR: CI: 0.56 (Paclitaxel (75 nM); CTR-21 (23 nM)); MDA-MB-231-TaxR: CI: 0.38 (Paclitaxel (37.5 nM); CTR-21 (23 nM)); MDA-MB-231-TaxR: CI: 0.35 (Paclitaxel (18.75 nM); CTR-21 (23 nM)) DOUBTS OF THE COPYIST ABOUT THIS PICTURE: Each CI value is printed over a group of three bars (the two single agents and Combo). It is assigned here to the Combo, with the concentrations of the two agents given as conditions.

HeLa cells [4] = assay: Combination of CTR-21 with ABT-737, combinatorial index; format: cell-based, human
Description: as §1

SMILES	half-life at 5 µM [1]	cell cycle effect (HeLa cells [2]; 3× GI50, 12 or 24 h, HeLa and UKRV-Mel-38 (Supplemental Fig. S11))	activity against NCI-60 panel [3]	half-life relative to CTR-32 ([1]; human microsomes)	cell cycle effect (HeLa cells [2]; HeLa, 30 nM, by 12 h, maintained after 24 h)	CI (combinatorial index) (MDA-MB-231TaxR cells)	CI (combinatorial index) (HeLa cells [4]; ABT-737 1.5625 μM + CTR-21 0.78 nM)	combination index (CI) (HeLa cells [4]; CTR-21 0.78 nM with low doses of ABT-737)
CCOc1ccccc1C(=O)/C=C/c1cc2ccccc2[nH]c1=O [CTR-32, (E)-3-(3-(2-ethoxyphenyl)-3-oxoprop-1-enyl)quinolin-2(1H)-one]	13.7 min	arrests the cells in G2/M	highly effective	–	–	–	–	–
COc1ccccc1C(=O)/C=C/c1cc2cccc(OC)c2[nH]c1=O [CTR-21, (E)-8-methoxy-3-(3-(2-methoxyphenyl)-3-oxoprop-1-enyl) quinolin-2(1H)-one]	65.2 min	–	highly effective	almost five times greater	arrest in G2/M	0.35	0.48	less than 1.0

Source: paper PMC8566451, “Lead optimization of novel quinolone chalcone compounds by a structure–activity relationship (SAR) study to increase efficacy and metabolic stability” (Scientific Reports, 2021)
